ChEMBL document CHEMBL1153888, “Targeted intracellular protein degradation induced by a small molecule: En route to chemical proteomics” (Bioorg Med Chem Lett, 2008)
The source made the active and inactive calls. No cut-off for these calls is given here.

Key:
[1] = biological target: E3 ubiquitin-protein ligase Mdm2 (Homo sapiens, UniProt Q00987); test: Binding affinity to MDM2
[2] = test system: HeLa; test: Induction of intracellular protein degradation in human HeLa cells expressing androgen receptor assessed as decrease in total AR protein levels at 10 uM after 7 hrs by Western blot; assay type: functional, cell-based
[3] = test system: HeLa; test: Inhibition of intracellular protein degradation in human HeLa cells expressing androgen receptor assessed as effect on total AR protein levels at 10 uM after 7 hrs by Western blot in presence of epoxomicin; assay type: functional, cell-based

Chain of E3 ubiquitin-protein ligase Mdm2 (Q00987 whole entry): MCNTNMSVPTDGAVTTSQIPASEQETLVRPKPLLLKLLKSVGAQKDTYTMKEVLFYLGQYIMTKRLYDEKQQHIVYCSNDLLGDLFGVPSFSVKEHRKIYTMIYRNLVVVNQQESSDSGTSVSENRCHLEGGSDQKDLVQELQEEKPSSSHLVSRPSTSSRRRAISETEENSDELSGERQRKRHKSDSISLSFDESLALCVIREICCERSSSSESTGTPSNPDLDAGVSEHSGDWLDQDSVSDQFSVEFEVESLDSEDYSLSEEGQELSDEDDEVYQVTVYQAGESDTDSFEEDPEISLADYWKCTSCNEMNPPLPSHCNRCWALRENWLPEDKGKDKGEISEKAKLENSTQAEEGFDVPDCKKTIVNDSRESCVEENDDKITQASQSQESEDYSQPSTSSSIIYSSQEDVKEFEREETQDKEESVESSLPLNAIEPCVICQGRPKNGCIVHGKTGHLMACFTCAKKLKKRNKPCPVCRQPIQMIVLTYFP

## COc1ccc(C2=NC(c3ccc(Cl)cc3)C(c3ccc(Cl)cc3)N2)c(OC(C)C)c1 (stereo not drawn)
[1]
  IC50: 90 nM

## COc1ccc(C2=N[C@H](c3ccc(Cl)cc3)[C@H](c3ccc(Cl)cc3)N2C(=O)N2CCN(CC(=O)NCCOCCOCCOCC(=O)Nc3ccc(OC[C@](C)(O)C(=O)Nc4ccc([N+](=O)[O-])c(C(F)(F)F)c4)cc3)C(=O)C2)c(OC(C)C)c1
[2]
  Activity: Active
[3]
  Activity: Active
